The record followed here is ChEMBL document CHEMBL1201862, “PubChem BioAssay data set” (2004).

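Results reflect a 48-hour exposure of cells in 96-well plates to compound at five concentrations. GI50 marks 50% less growth.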 Calls of active or inactive are those of the source. Cut-off read from the data, not from the text of the source: active = GI50 up to about 1.1 µM and inactive = higher.

Test systems include 786-0; A498; A549; CAKI-1; HL-60; HOP-92; HT-29; Hs-578T; LOX IMVI; M14; MDA-MB-231; MDA-MB-435; MOLT-4; NCI-H226; OVCAR-4; RPMI-8226; SF-295; SK-MEL-2; TK-10.
What all share (test): NCI anticancer screen, dose series, 48 h

For `CNC1C(=O)C(C)C(O)(C(CC(C)C(O)/C=C/C=C/CNC(=O)C(C)(C)C(O)\C(C)=C/C=C\C=C\Cc2cnc(C)o2)OC)C12C(=O)OC2C.CNC1C(=O)C(C)C(O)(C(CC(C)C(O)/C=C/C=C/CNC(=O)C(C)(C)C(O)\C(C)=C/C=C\C=C\Cc2cnc(C)o2)OC)C12C(=O)OC2COC` (stereo not drawn), the GI50 in the assay on 786-0 was 18.5 µM (inactive); with A498, 28.4 µM (inactive); with A549 it was 0.78 µM (active); with CAKI-1 it was 31.8 µM (inactive); in the assay on HL-60 it was 0.635 µM (active); in the assay with HOP-92, 2.72 µM (inactive). The GI50 in the assay on HT-29 was 3.27 µM (inactive); in the assay with Hs-578T, 12.4 µM (inactive); in the assay with LOX IMVI, 14.2 µM (inactive); with M14, 7.46 µM (inactive); with MDA-MB-231 it was 26.9 µM (inactive); with MDA-MB-435, 16 µM (inactive). In addition, the GI50 in the assay with MOLT-4 was 8.85 µM (inactive); in the assay on NCI-H226 it was 0.668 µM (active); with OVCAR-4 it was 0.345 µM (active); in the assay on RPMI-8226, 0.711 µM (active); in the assay with SF-295 it was 0.528 µM (active); with SK-MEL-2 it was 5.94 µM (inactive). In addition, the GI50 in the assay on TK-10 was 11.9 µM (inactive).

With `COc1ccccc1/C(=N\OCCC(=O)O)c1cccs1`, the GI50 in the assay on 786-0, with A498, in the assay with A549, in the assay on CAKI-1, with HL-60 and with HOP-92 was > 100 µM (inactive) each time. Besides, the GI50 with HT-29 was > 100 µM (inactive); with Hs-578T, 56.6 µM (inactive); in the assay on LOX IMVI, > 100 µM (inactive); in the assay on MDA-MB-231, > 100 µM (inactive); in the assay with MDA-MB-435 it was > 100 µM (inactive); with MOLT-4, > 100 µM (inactive). Moreover, the GI50 in the assay with NCI-H226, in the assay on OVCAR-4, in the assay with RPMI-8226, with SF-295, with SK-MEL-2 and with TK-10 was > 100 µM (inactive) each time.

As to `O=C1OC(CN2CCN(c3ccccc3)CC2)CN1C(=S)Nc1ccccc1` (stereo not drawn), the GI50 with 786-0, in the assay on A498, with A549, in the assay with CAKI-1, in the assay with HL-60 and in the assay with HOP-92 was > 100 µM (inactive) throughout. Further, the GI50 in the assay on HT-29 is 35.1 µM (inactive); in the assay with Hs-578T, > 100 µM (inactive); with LOX IMVI, > 100 µM (inactive); in the assay on M14, > 100 µM (inactive); in the assay with MDA-MB-231, > 100 µM (inactive); with MDA-MB-435, > 100 µM (inactive). The GI50 with MOLT-4 is > 100 µM (inactive); in the assay with NCI-H226, > 100 µM (inactive); with OVCAR-4, > 100 µM (inactive); in the assay on RPMI-8226 it was 92.5 µM (inactive); in the assay on SF-295, > 100 µM (inactive); in the assay with SK-MEL-2, 31.8 µM (inactive). Also, the GI50 in the assay on TK-10 was > 100 µM (inactive).

Consider `CCCCCCN(C(=O)Oc1ccccc1)C(C#N)c1ccccc1` (stereo not drawn), for which the GI50 with 786-0, in the assay on A498, with A549, with CAKI-1, in the assay with HL-60 and with HOP-92 was > 100 µM (inactive) in each case. For the same compound, the GI50 with HT-29, in the assay with Hs-578T, in the assay with LOX IMVI, in the assay on M14, with MDA-MB-231 and in the assay on MDA-MB-435 was > 100 µM (inactive) throughout. In addition, the GI50 in the assay on MOLT-4, in the assay with NCI-H226, with OVCAR-4, in the assay with RPMI-8226, with SF-295 and in the assay with SK-MEL-2 was > 100 µM (inactive) in each case. Besides, in the assay on TK-10, the GI50 was > 100 µM (inactive).

Regarding `Fc1ccccc1/N=c1\oc2ccc(Br)cc2cc1-c1nc2ccccc2[nH]1`, the GI50 in the assay with 786-0 was 3.18 µM (inactive); in the assay with A498, 2.58 µM (inactive); with A549, 7.01 µM (inactive); in the assay on CAKI-1 it was 9.55 µM (inactive); in the assay with HL-60, > 100 µM (inactive); in the assay with HOP-92 it was 18 µM (inactive). In addition, the GI50 in the assay with Hs-578T was 0.485 µM (active); in the assay with LOX IMVI, 13.2 µM (inactive); in the assay with M14 it was 11.2 µM (inactive); in the assay with MDA-MB-231, 6.7 µM (inactive); in the assay on MDA-MB-435, 23.1 µM (inactive); in the assay with MOLT-4 it was > 30.8 µM (inactive). In addition, the GI50 was 4.26 µM (inactive) with NCI-H226; 5.96 µM (inactive) with OVCAR-4; 28 µM (inactive) in the assay on RPMI-8226; 5.48 µM (inactive) in the assay with SF-295; 8.18 µM (inactive) with SK-MEL-2; 6.59 µM (inactive) with TK-10.

As for `CCn1cc(C(=O)O)c(=O)c2cc3c(cc21)S(=O)(=O)CC3`, the GI50 in the assay with 786-0, in the assay with A498, with A549, in the assay with CAKI-1, with HL-60 and in the assay on HOP-92 was > 100 µM (inactive) each time. The GI50 in the assay with HT-29, in the assay with Hs-578T, with LOX IMVI, in the assay on M14, in the assay with MDA-MB-231 and with MDA-MB-435 was > 100 µM (inactive) throughout. For the same compound, the GI50 in the assay on MOLT-4, with NCI-H226, in the assay with OVCAR-4, in the assay with RPMI-8226, in the assay with SF-295 and with SK-MEL-2 was > 100 µM (inactive) each time. For the same compound, the GI50 with TK-10 was > 100 µM (inactive).

In the case of `Cc1ccc(NC(=S)C#N)c(C)c1`, the GI50 in the assay with 786-0 is > 100 µM (inactive); with A498, > 100 µM (inactive); in the assay with A549, > 100 µM (inactive); in the assay on CAKI-1, > 100 µM (inactive); in the assay on HL-60 it was 20.5 µM (inactive); with HOP-92, 74.8 µM (inactive). Also, the GI50 in the assay on HT-29 is > 91.2 µM (inactive); in the assay on Hs-578T it was > 100 µM (inactive); with LOX IMVI it was 73.1 µM (inactive); in the assay on M14 it was 97.3 µM (inactive); with MDA-MB-231, > 100 µM (inactive); in the assay with MDA-MB-435 it was 56 µM (inactive). Also, the GI50 is 28.8 µM (inactive) with MOLT-4; > 84.3 µM (inactive) in the assay on NCI-H226; > 64.1 µM (inactive) with OVCAR-4; 21.3 µM (inactive) in the assay on RPMI-8226; > 100 µM (inactive) in the assay on SF-295; > 100 µM (inactive) with SK-MEL-2. In addition, the GI50 in the assay with TK-10 is > 100 µM (inactive).

Take `C=C(Cl)C(=C)CCC(Cl)C(C)(C)Cl` (stereo not drawn): the GI50 in the assay with 786-0, with A498, in the assay with A549, in the assay with CAKI-1, in the assay on HL-60 and in the assay on HOP-92 was > 100 µM (inactive) in each case. For the same compound, the GI50 in the assay with HT-29, with Hs-578T, with LOX IMVI, in the assay on M14, in the assay on MDA-MB-231 and in the assay on MDA-MB-435 was > 100 µM (inactive) each time. For the same compound, the GI50 in the assay on MOLT-4, with NCI-H226, in the assay with OVCAR-4, in the assay with RPMI-8226, in the assay on SF-295 and in the assay on SK-MEL-2 was > 100 µM (inactive) throughout. The GI50 in the assay with TK-10 is > 100 µM (inactive).

`O=c1/c(=C/c2ccc([N+](=O)[O-])o2)sc2n1[C@@H](c1ccc3c(c1)OCO3)C=C(c1cc(F)c(Cl)cc1Cl)N=2`: the GI50 in the assay with 786-0 was 9.51 µM (inactive); with A498, 56 µM (inactive); in the assay on A549 it was 16.4 µM (inactive); with CAKI-1 it was 13.7 µM (inactive); in the assay on HL-60 it was 15.6 µM (inactive); in the assay on HOP-92 it was 12.6 µM (inactive). The GI50 with HT-29 is 17.1 µM (inactive); with Hs-578T, 61 µM (inactive); with LOX IMVI, 17.2 µM (inactive); in the assay on M14 it was 13.9 µM (inactive); with MDA-MB-231 it was 23 µM (inactive); in the assay with MDA-MB-435, 13.4 µM (inactive). In addition, the GI50 with MOLT-4 was 8.91 µM (inactive); with NCI-H226, 46.7 µM (inactive); in the assay with OVCAR-4 it was 15.7 µM (inactive); in the assay on RPMI-8226 it was 9.31 µM (inactive); in the assay on SF-295, 31.2 µM (inactive); with SK-MEL-2 it was 25.1 µM (inactive). Further, the GI50 in the assay on TK-10 was 23.3 µM (inactive).

On to `CN(C)CCNc1ccc2ncnc3c2c1C(=O)c1ccccc1-3`, for which the GI50 with 786-0 was 0.215 µM (active); in the assay with A498, 1.64 µM (inactive); with A549, 0.274 µM (active); with CAKI-1, 0.259 µM (active); with HL-60, 2.58 µM (inactive); with HOP-92 it was 1.12 µM (active). Besides, the GI50 is 0.463 µM (active) in the assay with HT-29; 0.989 µM (active) in the assay on Hs-578T; 0.24 µM (active) in the assay with LOX IMVI; 0.314 µM (active) with M14; 0.337 µM (active) in the assay with MDA-MB-231; 0.535 µM (active) in the assay with MDA-MB-435. The GI50 in the assay on MOLT-4 was 0.0769 µM (active); with NCI-H226, 0.431 µM (active); in the assay with OVCAR-4 it was 0.627 µM (active); in the assay with RPMI-8226 it was 0.263 µM (active); in the assay with SF-295, 0.174 µM (active); in the assay on SK-MEL-2 it was 1.76 µM (inactive). For the same compound, the GI50 in the assay with TK-10 is 0.175 µM (active).
